According to ChEMBL document CHEMBL4725381, “Synthesis and activity of isoleucine sulfonamide derivatives as novel botulinum neurotoxin serotype A light chain inhibitors” (Bioorg Med Chem, 2020):
Activity calls are given as the source filed them. The calls are words filed in the database; no cut-off is given here.

Target: Botulinum neurotoxin type A (Clostridium botulinum, UniProt P0DPI0)
Experiment: Inhibition of Clostridium botulinum BoNT/A light chain using SNAPtide as substrate preincubated with enzyme for 2 mins followed by substrate addition and measured for 0-5 mins by FRET assay

Sequence of Botulinum neurotoxin type A (P0DPI0 2-448 limits assumed): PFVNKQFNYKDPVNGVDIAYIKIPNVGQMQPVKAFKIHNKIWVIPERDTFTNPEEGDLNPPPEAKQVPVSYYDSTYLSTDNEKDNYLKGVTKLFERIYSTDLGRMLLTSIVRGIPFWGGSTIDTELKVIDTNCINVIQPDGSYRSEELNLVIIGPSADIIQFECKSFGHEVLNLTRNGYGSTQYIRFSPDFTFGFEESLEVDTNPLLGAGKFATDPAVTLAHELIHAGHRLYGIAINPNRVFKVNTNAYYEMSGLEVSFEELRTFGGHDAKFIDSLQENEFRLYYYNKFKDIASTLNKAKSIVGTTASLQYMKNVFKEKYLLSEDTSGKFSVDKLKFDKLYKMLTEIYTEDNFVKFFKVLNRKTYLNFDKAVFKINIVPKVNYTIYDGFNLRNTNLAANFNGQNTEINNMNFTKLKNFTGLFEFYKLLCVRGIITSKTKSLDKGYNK

Structure (SMILES) | IC50 [µM]
CC[C@@H](C)[C@@H](NS(=O)(=O)c1cccc(-c2ccccc2Cl)c1)C(=O)NO | 0.587
CC[C@@H](C)[C@@H](NS(=O)(=O)c1cccc(-c2cc3ccccc3o2)c1)C(=O)NO | 14

Target: Botulinum neurotoxin type A (Clostridium botulinum) (UniProt P0DPI0)
Sequence (P0DPI0 2-448 limits assumed): as above
Experiment: Inhibition of Clostridium botulinum BoNT/A light chain at 30 uM using SNAPtide as substrate preincubated with enzyme for 2 mins followed by substrate addition and measured for 0-5 mins by FRET assay relative to control

Structure (SMILES) | inhibition
CC[C@H](C)[C@H](NC(=O)c1cccc(-c2cc3ccccc3o2)c1)C(=O)NO | 80%
CC[C@H](C)[C@H](NS(=O)(=O)c1cccc(-c2c(Cl)cccc2Cl)c1)C(=O)NO | 66%
CC[C@H](C)[C@H](NS(=O)(=O)c1cccc(-c2ccc(Cl)c(Cl)c2)c1)C(=O)NO | 26%
CC[C@H](C)[C@H](NC(=O)c1cccc(-c2ccco2)c1)C(=O)NO | 58%
CC[C@H](C)[C@H](NS(=O)(=O)c1cccc(-c2ccc([N+](=O)[O-])cc2)c1)C(=O)NO | 41%
CC[C@H](C)[C@H](NS(=O)(=O)c1cccc(-c2cccc(Cl)c2)c1)C(=O)NO | 44%
O=C(NO)C1(NS(=O)(=O)c2cccc(-c3cc4ccccc4o3)c2)CC1 | inactive
CC(C)C[C@@H](NC(=O)c1cccc(-c2cc3ccccc3o2)c1)C(=O)NO | 58%
CC[C@H](C)[C@H](NC(=O)c1cccc(-c2cccc(Cl)c2)c1)C(=O)NO | 64%
CC[C@H](C)[C@H](NS(=O)(=O)c1cccc(-c2ccco2)c1)C(=O)NO | 40%
CC[C@H](C)[C@H](NS(=O)(=O)c1cccc(-c2ccc(Cl)cc2Cl)c1)C(=O)NO | 48%
CC[C@H](C)[C@H](NS(=O)(=O)c1cccc(-c2cc3ccccc3o2)c1)C(=O)NO | 61%
CCCC[C@H](NS(=O)(=O)c1cccc(-c2cc3ccccc3o2)c1)C(=O)NO | 44%
CC[C@H](C)[C@H](NS(=O)(=O)c1cccc(-c2ccccc2Cl)c1)C(=O)NO | 50%
CC[C@H](C)[C@H](NS(=O)(=O)c1cccc(-c2ccoc2)c1)C(=O)NO | 14%
CC(C)C[C@@H](NS(=O)(=O)c1cccc(-c2cc3ccccc3o2)c1)C(=O)NO | 86%
CC[C@H](C)[C@H](NS(=O)(=O)c1cccc(-c2cccc([N+](=O)[O-])c2)c1)C(=O)NO | 34%
CC[C@@H](C)[C@@H](NC(=O)c1cccc(-c2cc3ccccc3o2)c1)C(=O)NO | 16%
CC[C@H](C)[C@H](NC(=O)c1cccc(-c2ccccc2Cl)c1)C(=O)NO | 50%
CC[C@H](C)[C@H](NC(=O)c1cccc(-c2cc(Cl)ccc2Cl)c1)C(=O)NO | 68%
CC[C@@H](C)[C@@H](NS(=O)(=O)c1cccc(-c2cc3ccccc3o2)c1)C(=O)NO | 94%
CC[C@H](C)[C@H](NS(=O)(=O)c1cccc(-c2cc(Cl)ccc2Cl)c1)C(=O)NO | 29%
